Earlier results on 24 compounds are cited in patent publication EP2691395B1, “PROCESSES FOR PREPARING TOFACITINIB SALTS” (ratiopharm GmbH, priority 2011, dated 2012).

For the data set the following is noted: acids listed as possible first acid.
For `CC(O)CC(=O)O` (stereo not drawn) [3-hydroxybutanoic acid], the pKa entry is “about 4.70”. With `O=C(O)CCO` [3-hydroxypropanoic acid], the pKa entry is on record as “about 4.51”.

Consider `CC(=O)Nc1ccc(C(=O)O)cc1` [4-acetamidobenzoic acid], for which the pKa result was “about 4.3”. `O=C(O)CCCO` [4-hydroxybutanoic acid]: the pKa entry is “about 4.72”. Take `CC1(C(=O)O)CCC(C(=O)O)C1(C)C` (stereo not drawn) [(+)-camphoric acid]: the pKa result was “about 4.72”. In the case of `O=C(O)[C@H](O)[C@@H](O)[C@H](O)[C@H](O)CO` [D-gluconic acid], the pKa entry was “about 3.76”. Regarding `CCCCCCCC(=O)O` [caprylic or octanoic acid], the pKa result was “about 4.91”. Regarding `O=C(O)O` [carbonic acid], the pKa entry is given as “about 6.46”.

For the compound `O=C(O)/C=C\c1ccccc1` [cis-cinnamic acid], the pKa result is “about 3.89”. Turning to `O=C(O)CCCC(=O)O` [glutaric acid], the pKa entry was “about 4.31”. Turning to `CCCCCC(=O)O` [hexanoic or caproic acid], the pKa result is given as “about 4.85”. Take `O=C(O)CNC(=O)c1ccccc1` [hippuric acid]: the pKa result is on record as “about 3.55”. `CCCCCCCCCCCC(=O)O` [lauric acid]: the pKa result was “about 4.9”. For `O=C(O)c1cccc(O)c1` [m-hydroxybenzoic acid], the pKa entry is reported as “about 4.06”. Take `CC(CC(=O)O)C(=O)O` (stereo not drawn) [methylsuccinic acid]: the pKa result is “about 4.13”. Regarding `CCCCCCCC/C=C\CCCCCCCC(=O)O` [oleic acid], the pKa result is listed as “about 4”.

As to `O=C(O)c1cc(=O)[nH]c(=O)[nH]1` [orotic acid], the pKa entry was “about 5.85”. In the case of `O=C(O)c1ccc(O)cc1` [p-hydroxybenzoic acid], the pKa result is “about 4.48”.

In the case of `CCCCCCCCCCCCCCCC(=O)O` [palmitic acid], the pKa result is on record as “about 4.9”. Take `CCCCC(=O)O` [pentanoic acid]: the pKa entry is “about 4.84”. Consider `O=C(O)Cc1ccccc1` [phenylacetic acid], for which the pKa result is reported as “about 4.28”. As to `CCCCCCCCCCCCCCCCCC(=O)O` [stearic acid], the pKa result is recorded as “about 4.9”.

Take `C=CCCCCCCCCC(=O)O` [undecylenic acid]: the pKa result is “about 4.9”.

As to `O=c1[nH]c(=O)c2[nH]c(=O)[nH]c2[nH]1` [uric acid], the pKa entry was “about 3.89”.
